The values that follow come from ChEMBL document CHEMBL1201862, “PubChem BioAssay data set” (2004).

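Grown in 96-well plates, cells were treated for 48 hours with each compound at five concentrations. Insufficient inhibition: endpoint recorded as highest concentration tested. GI50 marks 50% less growth.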 Active and inactive are the calls of the source. No stated cut-off is given here; in the data, active = GI50 up to about 1.1 µM and inactive = higher.

Holding throughout (experiment): growth of human tumour cells (NCI), 48 h
Test [1] relates to SNB-19.
Test [2] deals with NCI-H23.
Test [3] concerns DU-145.
For test [4], the system named is MDA-MB-435.
For test [5], the system named is T47D.
Test [6] relates to SF-295.
Test [7] concerns SF-268.
The subject of test [8] is HCT-116.
The test system of test [9] is HCC 2998.
For test [10], the system named is NCI-H522.
The test system of test [11] is OVCAR-4.
Test [12] relates to CCRF-CEM.
Test [13] has as its system A549.
Test [14] concerns MDA-MB-231.
In test [15] the test system is UO-31.
The test system of test [16] is EKVX.
Test [17] has as its system Malme-3M.
In test [18] the test system is HL-60.
Test [19] has as its system SK-MEL-28.

For the molecule `COc1cc2nc3c(=C(C#N)C#N)c4ccccc4n3c(=O)c2cc1OC`, the GI50 in test [1], in [2], in test [3], in [4], in test [5] and in [6] was > 100 µM (inactive) in each case. The GI50 was 75.7 µM (inactive) in test [7]; > 100 µM (inactive) in [8]; > 100 µM (inactive) in [9]; > 100 µM (inactive) in test [10]; > 100 µM (inactive) in test [11]; 32.4 µM (inactive) in test [12]. Also, the GI50 in test [13], in test [14], in [15] and in test [16] was > 100 µM (inactive) in each case.

With `COc1ccc2c(c1)/C(=C\c1c(Cl)n(-c3ccccc3)c3ccccc13)C(=O)N2`, the GI50 is 3.67 µM (inactive) in [1]; 6.01 µM (inactive) in [2]; 5.89 µM (inactive) in test [3]; 1.64 µM (inactive) in test [4]; 5.94 µM (inactive) in test [5]; 3.91 µM (inactive) in [6]. The GI50 in test [17] is 2.83 µM (inactive); in test [7] it was 2.85 µM (inactive); in test [18], 2.72 µM (inactive); in [8], 2.99 µM (inactive); in [9], 4.89 µM (inactive); in [11], 9.2 µM (inactive). In addition, the GI50 in [12] is 3.85 µM (inactive); in test [13], 4.34 µM (inactive); in test [19], 9.31 µM (inactive); in [14], 13.4 µM (inactive); in test [15], 1.53 µM (inactive); in test [16], 5.86 µM (inactive).

For `c1ccc2cc(CNCCCCNCCCNCc3ccc4ccccc4c3)ccc2c1`, the GI50 in [1] was 1.43 µM (inactive); in test [2] it was 1.8 µM (inactive); in test [3], 1.27 µM (inactive); in [4] it was 1.45 µM (inactive); in test [5] it was 2.77 µM (inactive); in test [6], 1.5 µM (inactive). Besides, the GI50 in test [17] is 1.71 µM (inactive); in test [7], 1.41 µM (inactive); in [8], 0.3 µM (active); in [9], 0.48 µM (active); in [10], 1.14 µM (inactive); in test [11] it was 1.6 µM (inactive). Besides, the GI50 in test [12] is 0.351 µM (active); in test [13], 1.62 µM (inactive); in test [19], 1.69 µM (inactive); in test [14], 1.82 µM (inactive); in test [15] it was 1.42 µM (inactive); in test [16] it was 1.57 µM (inactive).

`Nc1nc(=O)n(C2OC(CO)C(O)C2O)c2ncc(-c3ccc(-c4ccccc4)cc3)nc12` (centres undefined): the GI50 in test [1] was 82.2 µM (inactive); in [2], > 100 µM (inactive); in [3] it was > 100 µM (inactive); in test [4], > 100 µM (inactive); in test [5], > 100 µM (inactive); in test [6] it was > 100 µM (inactive). The GI50 in test [17], in test [7], in [8], in test [9], in [10] and in test [11] was > 100 µM (inactive) each time. Besides, the GI50 in [12] is 9.62 µM (inactive); in test [13] it was > 100 µM (inactive); in [14], 21 µM (inactive); in test [15] it was > 100 µM (inactive); in [16], 94.8 µM (inactive).

Regarding `CC1(C)O[C@@H](CBr)C[C@H](C[C@H]2C[C@@H](O)C[C@@H](CCOCc3ccccc3)O2)O1`, the GI50 in [1] was 25.5 µM (inactive); in test [2], 16.3 µM (inactive); in test [3], 25.4 µM (inactive); in [4] it was 23.5 µM (inactive); in test [5], 14.9 µM (inactive); in test [6] it was 17 µM (inactive). Moreover, the GI50 was 17.3 µM (inactive) in test [17]; 22 µM (inactive) in test [7]; 21.3 µM (inactive) in [8]; 24.6 µM (inactive) in test [9]; 16.4 µM (inactive) in test [10]; 21.6 µM (inactive) in test [11]. The GI50 in test [12] was 47.3 µM (inactive); in [13], 23.9 µM (inactive); in [19], 25.2 µM (inactive); in test [14] it was 40.3 µM (inactive); in test [15] it was 20.7 µM (inactive); in test [16], 17.8 µM (inactive).

With `Cc1ccc(C2=C(C#N)C(=O)N3CCN=C3S2)cc1`, the GI50 was 70.3 µM (inactive) in test [1]; > 100 µM (inactive) in [2]; > 100 µM (inactive) in test [3]; > 100 µM (inactive) in test [4]; > 100 µM (inactive) in test [5]; > 100 µM (inactive) in [6]. The GI50 in test [17] is 43.5 µM (inactive); in [8], > 100 µM (inactive); in test [9] it was > 100 µM (inactive); in test [10] it was > 100 µM (inactive); in [11], > 100 µM (inactive); in test [12], > 100 µM (inactive). Further, the GI50 in test [13], in test [19], in [14], in test [15] and in [16] was > 100 µM (inactive) throughout.

Regarding `CN(C)CCCn1nc(N)c2nc3cc(Cl)ccc3nc21`, the GI50 in [1] is 65.3 µM (inactive); in [2], 81.8 µM (inactive); in test [3], 54.8 µM (inactive); in test [4] it was 34 µM (inactive); in test [5], 92.3 µM (inactive); in [6], > 77.1 µM (inactive). Moreover, the GI50 in test [17] was 41.1 µM (inactive); in test [7], 58.1 µM (inactive); in [8], 30.3 µM (inactive); in [9] it was 35.7 µM (inactive); in test [10], 61.9 µM (inactive); in [11] it was > 100 µM (inactive). Further, the GI50 is 31 µM (inactive) in test [12]; 37.1 µM (inactive) in [13]; 18.1 µM (inactive) in test [19]; 58.3 µM (inactive) in test [14]; 28.6 µM (inactive) in test [15]; > 66.5 µM (inactive) in test [16].

For `CC1=CC(=O)N(n2c(Cc3ccc(Cl)cc3)n[nH]c2=O)C1=O`, the GI50 in [1] was 55.6 µM (inactive); in test [2], 92.3 µM (inactive); in [3], > 100 µM (inactive); in [4] it was 38.2 µM (inactive); in [5] it was 35.4 µM (inactive); in test [6], 28.4 µM (inactive). In addition, the GI50 was 94.2 µM (inactive) in test [17]; 70.1 µM (inactive) in test [7]; 40.3 µM (inactive) in test [8]; > 100 µM (inactive) in [9]; 17.4 µM (inactive) in [10]; 38.6 µM (inactive) in test [11]. The GI50 is 7.91 µM (inactive) in [12]; 77.6 µM (inactive) in test [13]; 46.3 µM (inactive) in test [14]; > 100 µM (inactive) in test [15]; 49 µM (inactive) in test [16].
